We go through 1 molecule from patent US20090081320A1, “Method for Weight Reduction” (priority 2005, published 2009).

Structures are written as SMILES.

This test in a line: General observations in test persons using the diet with or without composition. The format is in vivo, human. Conditions: diet not adhered to, additional intake. The text has this: It was observed that the application of the diet according to the invention by itself leads to a weight reduction. In all the test persons, however, side effects such as weakness and/or indisposition as well as gluttonous attacks were reported. […] This is due to the fact that with the intake of the composition that contains one or several active agents which promote fat burning, utilizable energy is made available and the fat burning is accelerated. A test person reported at the start of the reduction cycle on changing over to the diet in accordance with the invention combined with the simultaneous intake of a composition that contains one or several active agents which promote fat burning, that after 2-3 days, the feeling of indisposition or gluttonousness were no longer to be felt and the diet could be well adhered to.
Therefore, the composition contains, in a preferred embodiment in addition to one or several active agents that promote fat burning, one or several active agents that reduce the breakdown of fat to fatty acids in the intestines. Active agents that reduce the breakdown of fat to fatty acids in the intestines are herein active agents that inhibit enzymes which catalyse the breakdown of the fats (tricylglycerines) to fatty acids and glycerines. […] For a body weight deviating from this value, the quantity is to be appropriately adjusted.

Consider `C[N+](C)(C)C[C@H](O)CC(=O)[O-]` [L-canitine, (3R)-hydroxy-4-(trimethylammonium)-butyrat], for which the weight loss result is listed as “no weight loss”.
